In ChEMBL document CHEMBL5113529, “Design, Synthesis, and Biological Evaluation of Dual-Target COX-2/CYP51 Inhibitors for the Treatment of Fungal Infectious Diseases” (J Med Chem, 2022):
Values after ≈ are worked out from the molar mass of the structure shown. Active and inactive are the calls of the source. The calls are words filed in the database; no cut-off is given here.

Assays:
[1] = test system: Pichia kudriavzevii; experiment: Antifungal activity against Candida krusei ATCC 6258 assessed as fungal growth inhibition measured after 72 hrs by double dilution method; type: functional
[2] = test system: Candida tropicalis; experiment: Antifungal activity against Candida tropicalis ATCC 1369 assessed as fungal growth inhibition measured after 72 hrs by double dilution method; type: functional
[3] = test system: Candida albicans; experiment: Antifungal activity against Candida albicans ATCC SC5314 assessed as fungal growth inhibition measured after 72 hrs by double dilution method; type: functional
[4] = test system: Cryptococcus neoformans; experiment: Antifungal activity against Cryptococcus neoformans ZKCC 2209 assessed as fungal growth inhibition measured after 72 hrs by double dilution method; type: functional
[5] = test system: Aspergillus fumigatus; experiment: Antifungal activity against Aspergillus fumigatus KM8001 assessed as fungal growth inhibition measured after 72 hrs by double dilution method; type: functional
[6] = test system: Candida albicans; experiment: Antifungal activity against fluconazole -resistant Candida albicans 632 assessed as fungal growth inhibition measured after 72 hrs by double dilution method; type: functional
[7] = biological target: Lanosterol 14-alpha demethylase (Candida albicans (strain SC5314 / ATCC MYA-2876) (Yeast), UniProt P10613); experiment: Inhibition of CYP51 in Candida albicans SC5314 using Eburicol as substrate preincubated for 20 mins followed by substrate addition and measured after 4 mins by HPLC analysis; type: single protein
[8] = test system: Candida albicans; experiment: Antifungal activity against Candida albicans ATCC SC5314 assessed as induction of ROS production by measuring fluorescence intensity incubated for 12 hrs by KGT010-1 staining based fluorescence microscopy; type: functional, organism-based
[9] = test system: Candida albicans; experiment: Antifungal activity against Candida albicans ATCC SC5314 assessed as decrease in fungal cell density measured immediately by fluorescence microscopy (reference value: 126%); type: functional; parameters: scale not given: the % may be the effect or the level left
[10] = biological target: T1, Prostaglandin G/H synthase 2 (Homo sapiens, UniProt P35354); experiment: Inhibition of COX-2 (unknown origin) using arachidonic acid as substrate preincubated for 10 mins followed by substrate addition and measured after 2 mins by immunoassay
T1 sequence (P35354 whole entry): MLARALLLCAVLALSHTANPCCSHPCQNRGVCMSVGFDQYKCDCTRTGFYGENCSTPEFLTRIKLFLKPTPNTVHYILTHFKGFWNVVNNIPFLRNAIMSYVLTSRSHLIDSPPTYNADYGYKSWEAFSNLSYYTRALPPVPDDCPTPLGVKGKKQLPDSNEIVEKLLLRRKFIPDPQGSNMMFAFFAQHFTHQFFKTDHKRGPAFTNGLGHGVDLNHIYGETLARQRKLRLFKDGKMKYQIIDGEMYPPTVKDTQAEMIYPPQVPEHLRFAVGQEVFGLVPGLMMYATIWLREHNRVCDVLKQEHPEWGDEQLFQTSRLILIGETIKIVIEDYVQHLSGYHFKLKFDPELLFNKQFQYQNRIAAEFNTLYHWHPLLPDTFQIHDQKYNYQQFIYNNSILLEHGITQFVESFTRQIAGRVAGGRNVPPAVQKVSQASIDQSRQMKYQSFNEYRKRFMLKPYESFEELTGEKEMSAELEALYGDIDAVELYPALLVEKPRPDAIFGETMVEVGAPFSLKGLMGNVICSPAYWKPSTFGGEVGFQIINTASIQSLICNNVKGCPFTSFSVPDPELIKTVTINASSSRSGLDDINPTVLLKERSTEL

[11] = test system: Candida albicans; experiment: Antifungal activity against fluconazole -resistant Candida albicans 901 assessed as fungal growth inhibition measured after 72 hrs by double dilution method; type: functional
[12] = test system: Candida albicans; experiment: Antifungal activity against Candida albicans ATCC SC5314 assessed as decrease in fungal cell density measured at 48 hrs by fluorescence microscopy (reference value: 258%); type: functional; parameters: scale not given: the % may be the effect or the level left
[13] = test system: Candida albicans; experiment: Antifungal activity against fluconazole- resistant Candida albicans 17# assessed as fungal growth inhibition measured after 72 hrs by double dilution method; type: functional
[14] = test system: Candida albicans; experiment: Antifungal activity against fluconazole -resistant Candida albicans CaR assessed as fungal growth inhibition measured after 72 hrs by double dilution method; type: functional
[15] = test system: Candida albicans; experiment: Antifungal activity against fluconazole -resistant Candida albicans 904 assessed as fungal growth inhibition measured after 72 hrs by double dilution method; type: functional
[16] = biological target: Prostaglandin G/H synthase 1 (Homo sapiens, UniProt P23219); experiment: Inhibition of COX-1 (unknown origin) using arachidonic acid as substrate preincubated for 10 mins followed by substrate addition and measured after 2 mins by immunoassay
Prostaglandin G/H synthase 1, sequence (P23219 whole entry): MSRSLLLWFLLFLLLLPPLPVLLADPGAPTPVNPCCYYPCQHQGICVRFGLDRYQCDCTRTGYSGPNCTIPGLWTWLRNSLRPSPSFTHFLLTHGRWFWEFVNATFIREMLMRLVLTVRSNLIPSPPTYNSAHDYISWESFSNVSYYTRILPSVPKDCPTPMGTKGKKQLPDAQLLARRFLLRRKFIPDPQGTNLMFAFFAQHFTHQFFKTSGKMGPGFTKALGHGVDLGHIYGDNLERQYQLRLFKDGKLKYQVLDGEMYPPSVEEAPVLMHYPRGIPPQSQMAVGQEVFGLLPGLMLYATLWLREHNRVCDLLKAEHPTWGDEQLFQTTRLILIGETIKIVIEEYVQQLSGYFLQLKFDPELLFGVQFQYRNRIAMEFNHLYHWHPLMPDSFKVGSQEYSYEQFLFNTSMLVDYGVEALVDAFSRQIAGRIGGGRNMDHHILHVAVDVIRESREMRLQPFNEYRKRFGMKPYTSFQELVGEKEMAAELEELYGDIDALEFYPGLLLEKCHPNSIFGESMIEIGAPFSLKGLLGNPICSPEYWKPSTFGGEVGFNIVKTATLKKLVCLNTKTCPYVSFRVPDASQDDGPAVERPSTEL

Lanosterol 14-alpha demethylase, sequence (P10613 whole entry): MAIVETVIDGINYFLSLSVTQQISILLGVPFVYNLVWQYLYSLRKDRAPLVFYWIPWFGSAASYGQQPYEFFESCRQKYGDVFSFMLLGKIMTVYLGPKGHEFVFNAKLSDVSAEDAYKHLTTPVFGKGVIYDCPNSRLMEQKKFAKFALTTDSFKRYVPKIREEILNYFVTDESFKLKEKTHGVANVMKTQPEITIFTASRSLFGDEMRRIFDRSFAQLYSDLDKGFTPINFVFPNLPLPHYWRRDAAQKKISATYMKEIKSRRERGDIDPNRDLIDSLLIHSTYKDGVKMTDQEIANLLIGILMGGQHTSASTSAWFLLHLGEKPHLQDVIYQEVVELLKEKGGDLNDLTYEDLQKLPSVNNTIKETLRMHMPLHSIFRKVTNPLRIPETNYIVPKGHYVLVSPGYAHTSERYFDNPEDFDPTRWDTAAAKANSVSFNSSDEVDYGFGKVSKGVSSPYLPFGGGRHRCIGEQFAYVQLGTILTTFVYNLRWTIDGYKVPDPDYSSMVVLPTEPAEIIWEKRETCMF

Row | SMILES | MIC50 [1] [µg/mL] | MIC50 [2] [µg/mL] | MIC50 [3] [µg/mL] | MIC50 [4] [µg/mL] | MIC50 [5] [µg/mL] | MIC50 [6] [µg/mL] | IC50 [7] [µM] | Activity [8] | Activity [9] [%] | IC50 [10] [µM] | MIC50 [11] [µg/mL] | Activity [12] [%] | MIC50 [13] [µg/mL] | MIC50 [14] [µg/mL] | MIC50 [15] [µg/mL] | IC50 [16] [µM]
1 | C[C@H](C(=O)N[C@H](Cn1ccnc1)C(=O)NC1CCCCC1)c1ccc(-c2ccccc2)c(F)c1 | 2 (≈ 4.32 µM) | 1 (≈ 2.16 µM) | 2 (≈ 4.32 µM) | 4 (≈ 8.65 µM) | > 8 |  |  |  |  |  |  |  |  |  |  | 
2 | CC(C)OC(=O)[C@@H](Cn1cncn1)NC(=O)[C@@H](C)c1ccc(-c2ccccc2)c(F)c1 | 2 (≈ 4.71 µM) | 0.5 (≈ 1.18 µM) | 1 (≈ 2.36 µM) | 1 (≈ 2.36 µM) | > 8 |  |  |  |  |  |  |  |  |  |  | 
3 | COc1ccc2cc([C@H](C)C(=O)N[C@H](Cn3cncn3)C(=O)OC(C)C)ccc2c1 | 1 (≈ 2.44 µM) | 0.5 (≈ 1.22 µM) | 0.25 (≈ 0.609 µM) | 0.5 (≈ 1.22 µM) | 4 (≈ 9.74 µM) |  |  |  |  |  |  |  |  |  |  | 
4 | CC(C)OC(=O)[C@@H](Cn1cncn1)NC(=O)[C@@H](C)c1cccc(C(=O)c2ccccc2)c1 | 0.5 (≈ 1.15 µM) | 0.5 (≈ 1.15 µM) | 0.25 (≈ 0.575 µM) | 0.25 (≈ 0.575 µM) | 4 (≈ 9.21 µM) | > 8 | 0.2 | Active | 141 | 3.41 | 4 (≈ 9.21 µM) | 84 | 4 (≈ 9.21 µM) | 4 (≈ 9.21 µM) | > 8 | > 50
5 | C[C@H](C(=O)NC(Cn1ccnc1)C(=O)c1ccccc1)c1cccc(C(=O)c2ccccc2)c1 (stereo partly specified) | 0.5 (≈ 1.11 µM) | 0.5 (≈ 1.11 µM) | 1 (≈ 2.21 µM) | 1 (≈ 2.21 µM) | 4 (≈ 8.86 µM) |  |  |  |  |  |  |  |  |  |  | 
6 | CC(C)NC(=O)[C@@H](Cn1ccnc1)NC(=O)[C@@H](C)c1ccc(-c2ccccc2)c(F)c1 | 1 (≈ 2.37 µM) | 2 (≈ 4.73 µM) | 0.5 (≈ 1.18 µM) | 0.5 (≈ 1.18 µM) | > 8 |  |  |  |  |  |  |  |  |  |  | 
7 | CC(=O)N1CCN(c2ccc(OCC3COC(Cn4ccnc4)(c4ccc(Cl)cc4Cl)O3)cc2)CC1 (stereo unspecified) [KETOCONAZOLE] | 0.5 (≈ 0.941 µM) | 0.5 (≈ 0.941 µM) | 0.5 (≈ 0.941 µM) | 1 (≈ 1.88 µM) | > 8 | > 8 |  |  |  |  | 4 (≈ 7.53 µM) |  | 4 (≈ 7.53 µM) | 4 (≈ 7.53 µM) | > 8 | 
8 | COc1ccc2cc([C@H](C)C(=O)N[C@H](Cn3ccnc3)C(=O)NC(C)C)ccc2c1 | 0.25 (≈ 0.612 µM) | 1 (≈ 2.45 µM) | 0.25 (≈ 0.612 µM) | 0.5 (≈ 1.22 µM) | 4 (≈ 9.79 µM) |  |  |  |  |  |  |  |  |  |  | 
9 | COC(=O)[C@@H](Cn1ccnc1)NC(=O)[C@@H](C)c1ccc(-c2ccccc2)c(F)c1 | 0.5 (≈ 1.26 µM) | 2 (≈ 5.06 µM) | 1 (≈ 2.53 µM) | 0.5 (≈ 1.26 µM) | > 8 |  |  |  |  |  |  |  |  |  |  | 
10 | COC(=O)[C@@H](Cn1cncn1)NC(=O)[C@@H](C)c1ccc2cc(OC)ccc2c1 | 1 (≈ 2.61 µM) | 0.25 (≈ 0.654 µM) | 0.25 (≈ 0.654 µM) | 0.25 (≈ 0.654 µM) | 4 (≈ 10.5 µM) |  |  |  |  |  |  |  |  |  |  | 
11 | C[C@H](C(=O)N[C@H](Cn1ccnc1)C(=O)NC1CCCCC1)c1cccc(C(=O)c2ccccc2)c1 | 1 (≈ 2.12 µM) | 2 (≈ 4.23 µM) | 1 (≈ 2.12 µM) | 0.5 (≈ 1.06 µM) | > 8 |  |  |  |  |  |  |  |  |  |  | 
12 | C[C@H](C(=O)NC(Cn1cncn1)C(=O)c1ccccc1)c1ccc(-c2ccccc2)c(F)c1 (stereo partly specified) | 1 (≈ 2.26 µM) | 0.25 (≈ 0.565 µM) | 0.5 (≈ 1.13 µM) | 0.5 (≈ 1.13 µM) | 2 (≈ 4.52 µM) |  |  |  |  |  |  |  |  |  |  | 
